US20260078130A1, “NAMPT MODULATORS, PREPARATIONS, AND USES THEREOF” (SIRONAX LTD., priority 2022, published 2026)
Read-outs that look alike come from different tables or passages of the source.

Columns and labels:
[1] = target: T1, human enzyme NAMPT (full length) (Homo sapiens, UniProt P43490); test: NMN fluorescence biochemical assay (stimulation of NMN synthesis by NAMPT); conditions: for EC50: concentration giving half-maximal activation, read-out: Enzymatic EC50; for Enzymatic Emax: fold change of maximal activation compared to DMSO
T1 construct: human enzyme NAMPT (full length)
In short: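 Full-length human NAMPT (100 nM) was preincubated 15 min at 37 °C with compound in 50 mM Tris-HCl pH 7.5, 10 mM MgCl2, 2 mM DTT, then reacted 1 h at 37 °C with 50 μM NAM, 100 μM PRPP, 4 mM ATP (stated solution concentrations). NMN was derivatised with acetophenone/KOH then formic acid and read at Ex/Em 382/445 nm; EC50 and Emax (fold over DMSO) reported.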

[2] = system: endogenous NAMPT in U2OS cells; test: Cellular NAD+ modulation assay (NAD/NADH-Glo, U2OS cells); assay type: cell-based; conditions: Homo sapiens; for maximal fold induction: read-out: Cellular Emax
In short: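 NAD/NADH-Glo luminescence quantified NAD+ after acid treatment (60 °C, 15 min) and neutralization of DTAB lysates. Beforehand, U2OS cells seeded 16 h earlier received compound concentration series for 24 h at 37 °C. Values given as half-maximal activation concentration (EC50) and maximal fold change versus DMSO (Emax).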

[3] = NMN synthesis by purified human NAMPT (100 nM)
[4] = 24 hours incubation with compound
[5] = NMN fluorescence assay, purified human NAMPT 100 nM
[6] = 24 hours incubation, cellular NAD+

T1 sequence (P43490 whole entry): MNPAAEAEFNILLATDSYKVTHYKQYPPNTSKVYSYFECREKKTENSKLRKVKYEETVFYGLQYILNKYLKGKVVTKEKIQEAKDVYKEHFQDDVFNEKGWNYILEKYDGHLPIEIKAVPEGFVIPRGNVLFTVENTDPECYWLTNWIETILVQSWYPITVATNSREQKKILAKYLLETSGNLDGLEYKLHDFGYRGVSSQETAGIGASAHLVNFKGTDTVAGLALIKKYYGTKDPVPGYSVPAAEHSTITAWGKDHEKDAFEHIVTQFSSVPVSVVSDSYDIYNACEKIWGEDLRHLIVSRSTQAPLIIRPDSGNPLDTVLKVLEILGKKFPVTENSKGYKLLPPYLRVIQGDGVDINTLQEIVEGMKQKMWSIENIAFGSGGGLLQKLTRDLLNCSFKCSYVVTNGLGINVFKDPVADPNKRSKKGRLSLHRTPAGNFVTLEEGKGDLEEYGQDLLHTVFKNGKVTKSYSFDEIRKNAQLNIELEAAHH

`Cn1cnc(C#N)c1CC1c2ccccc2C(=O)N1Cc1ccc2[nH]nnc2c1` (centres unmarked) [Compound 315, 5-((2-((1H-benzo[d][1,2,3]triazol-5-yl)methyl)-3-oxoisoindolin-1-yl)methyl)-1-methyl-1H-imidazole-4-carbonitrile] was tested, and the EC50 [1, 3] was 0.5 to 5 µM, the “Enzymatic Emax” value [1] was “A (A>3)” and the EC50 [2, 4] was 5 to 50 µM. For the same molecule, the maximal fold induction [2, 4] was 1.2 to 1.5.

In the case of `O=c1c2ccccc2ccn1Cc1ccc(O)cc1` [Compound 1, 2-(4-hydroxybenzyl)isoquinolin-1(2H)-one], the EC50 [1, 3] is reported as no less than 5 µM, the “Enzymatic Emax” value [1] is reported as “A (A>3)” and the EC50 [2, 4] is reported as 0.5 to 5 µM. It also gave a maximal fold induction [2, 4] greater than 1.5.

In the case of `COc1ccc(CN2C(=O)c3ccc(OC(F)F)cc3C2Cc2c(Cl)cnn2C)cn1` (centres unmarked) [Compound 619, 3-((4-chloro-1-methyl-1H-pyrazol-5-yl)methyl)-5-(difluoromethoxy)-2-((6-methoxypyridin-3-yl)methyl)isoindolin-1-one], the EC50 [1, 5] is reported as no less than 5 µM, the “Enzymatic Emax” value [1] is reported as “A (A>3)” and the EC50 [2, 6] is reported as 0.5 to 5 µM. For the same molecule, the maximal fold induction [2, 6] was greater than 1.5.

`O=C1c2ccccc2C(C2CC2)N1Cc1ccc2[nH]c(=O)oc2c1` (centres unmarked) [Compound 72, 6-((1-cyclopropyl-3-oxoisoindolin-2-yl)methyl)benzo[d]oxazol-2(3H)-one] was tested, and the EC50 [1, 3] was no less than 5 µM, the “Enzymatic Emax” value [1] was “A (A>3)” and the EC50 [2, 4] was 0.5 to 5 µM. The maximal fold induction [2, 4] was greater than 1.5.

`Cc1ccccc1CC1c2ncccc2C(=O)N1Cc1ccc2[nH]c(=O)oc2c1` (centres unmarked) [Compound 151, 6-((7-(2-methylbenzyl)-5-oxo-5,7-dihydro-6H-pyrrolo[3,4-b]pyridin-6-yl)methyl)benzo[d]oxazol-2(3H)-one] was tested, and the EC50 [1, 3] was no less than 5 µM, the “Enzymatic Emax” value [1] was “A (A>3)” and the EC50 [2, 4] was 0.5 to 5 µM. It also gave a maximal fold induction [2, 4] greater than 1.5.

In the case of `Cc1ccc2c(c1)CN(Cc1ccc3[nH]c(=O)oc3c1)C2=O` [Compound 48, 6-((5-methyl-1-oxoisoindolin-2-yl)methyl)benzo[d]oxazol-2(3H)-one], the EC50 [1, 3] is reported as no less than 5 µM, the “Enzymatic Emax” value [1] is reported as “B (3≥B>2)” and the EC50 [2, 4] is reported as 0.5 to 5 µM. It also gave a maximal fold induction [2, 4] greater than 1.5.

`Cn1ncc(Cl)c1CC1c2cc(N3CCOCC3)ccc2C(=O)N1Cc1ccc2[nH]nnc2c1` (centres unmarked) [Compound 324, 2-((1H-benzo[d][1,2,3]triazol-5-yl)methyl)-3-((4-chloro-1-methyl-1H-pyrazol-5-yl)methyl)-5-morpholinoisoindolin-1-one] was tested, and the EC50 [1, 5] was less than 0.5 µM, the “Enzymatic Emax” value [1] was “A (A>3)” and the EC50 [2, 6] was less than 0.5 µM. The maximal fold induction [2, 6] was greater than 1.5.

With `Cn1ncc(Cl)c1CC1c2cc(C3COC3)ccc2C(=O)N1CC1CC2(CNC(=O)O2)C1` (centres unmarked) [Compound 473, 2-((3-((4-chloro-1-methyl-1H-pyrazol-5-yl)methyl)-5-(oxetan-3-yl)-1-oxoisoindolin-2-yl)methyl)-5-oxa-7-azaspiro[3.4]octan-6-one] the EC50 [1, 5] was 0.5 to 5 µM, the “Enzymatic Emax” value [1] was “B (3≥B>2)” and the EC50 [2, 6] was 0.5 to 5 µM. For the same molecule, the maximal fold induction [2, 6] was greater than 1.5.

With `N#Cc1ccccc1CC1c2ccccc2C(=O)N1Cc1ccc2[nH]nnc2c1` (centres unmarked) [Compound 189, 2-((2-((1H-benzo[d][1,2,3]triazol-5-yl)methyl)-3-oxoisoindolin-1-yl)methyl)benzonitrile] the EC50 [1, 3] was 0.5 to 5 µM, the “Enzymatic Emax” value [1] was “B (3≥B>2)” and the EC50 [2, 4] was 0.5 to 5 µM. For the same molecule, the maximal fold induction [2, 4] was greater than 1.5.

In the case of `Cn1nc(OC(F)F)c(Cl)c1CC1c2ccccc2C(=O)N1Cc1ccc2[nH]nnc2c1` (centres unmarked) [Compound 397, 2-((1H-benzo[d][1,2,3]triazol-5-yl)methyl)-3-((4-chloro-3-(difluoromethoxy)-1-methyl-1H-pyrazol-5-yl)methyl)isoindolin-1-one], the EC50 [1, 5] is reported as less than 0.5 µM, the “Enzymatic Emax” value [1] is reported as “B (3≥B>2)” and the EC50 [2, 6] is reported as less than 0.5 µM. For the same molecule, the maximal fold induction [2, 6] was greater than 1.5.

For `Cn1ccc(Cl)c(CC2c3ccccc3C(=O)N2CC2CC3(CNC(=O)O3)C2)c1=O` (centres unmarked) [Compound 480, 2-((1-((4-chloro-1-methyl-2-oxo-1,2-dihydropyridin-3-yl)methyl)-3-oxoisoindolin-2-yl)methyl)-5-oxa-7-azaspiro[3.4]octan-6-one], the EC50 [1, 5] was less than 0.5 µM, the “Enzymatic Emax” value [1] was “B (3≥B>2)” and the EC50 [2, 6] was less than 0.5 µM. It also gave a maximal fold induction [2, 6] greater than 1.5.

`Cc1cccc2c1C(Cc1c(Cl)ccnc1C#N)N(Cc1ccc3[nH]c(=O)oc3c1)C2=O` (centres unmarked) [Compound 272, 4-chloro-3-((7-methyl-3-oxo-2-((2-oxo-2,3-dihydrobenzo[d]oxazol-6-yl)methyl)isoindolin-1-yl)methyl)picolinonitrile] was tested, and the EC50 [1, 3] was 0.5 to 5 µM, the “Enzymatic Emax” value [1] was “A (A>3)” and the EC50 [2, 4] was less than 0.5 µM. The maximal fold induction [2, 4] was greater than 1.5.

With `Cc1cncc(C#N)c1CC1c2ccccc2C(=O)N1Cc1ccc2[nH]nnc2c1` (centres unmarked) [Compound 364, 4-((2-((1H-benzo[d][1,2,3]triazol-5-yl)methyl)-3-oxoisoindolin-1-yl)methyl)-5-methylnicotinonitrile] the EC50 [1, 5] was less than 0.5 µM, the “Enzymatic Emax” value [1] was “B (3≥B>2)” and the EC50 [2, 6] was less than 0.5 µM. The maximal fold induction [2, 6] was greater than 1.5.

With `Cn1nnc(Cl)c1CC1c2ccccc2C(=O)N1Cc1ccc2[nH]nnc2c1` (centres unmarked) [Compound 334, 2-((1H-benzo[d][1,2,3]triazol-5-yl)methyl)-3-((4-chloro-1-methyl-1H-1,2,3-triazol-5-yl)methyl)isoindolin-1-one] the EC50 [1, 5] was 0.5 to 5 µM, the “Enzymatic Emax” value [1] was “A (A>3)” and the EC50 [2, 6] was less than 0.5 µM. The maximal fold induction [2, 6] was greater than 1.5.

In the case of `O=c1c2ccccc2ccn1Cc1ccc2[nH]nnc2c1` [Compound 7, 2-((1H-benzo[d][1,2,3]triazol-5-yl)methyl)isoquinolin-1(2H)-one], the EC50 [1, 3] is reported as no less than 5 µM, the “Enzymatic Emax” value [1] is reported as “B (3≥B>2)” and the EC50 [2, 4] is reported as 5 to 50 µM. It also gave a maximal fold induction [2, 4] of 1.2 to 1.5.

`O=C1c2ccccc2C(Cc2ccccc2)N1Cc1ccc2[nH]c(=O)oc2c1` (centres unmarked) [Compound 106, 6-((1-benzyl-3-oxoisoindolin-2-yl)methyl)benzo[d]oxazol-2(3H)-one] was tested, and the EC50 [1, 3] was 0.5 to 5 µM, the “Enzymatic Emax” value [1] was “A (A>3)” and the EC50 [2, 4] was 0.5 to 5 µM. The maximal fold induction [2, 4] was 1.2 to 1.5.

In the case of `COc1ccc(CN2C(=O)c3ccccc3C2Cc2c(Cl)ccc(=O)n2C)cn1` (centres unmarked) [Compound 609, 3-((3-chloro-1-methyl-6-oxo-1,6-dihydropyridin-2-yl)methyl)-2-((6-methoxypyridin-3-yl)methyl)isoindolin-1-one], the EC50 [1, 5] is reported as 0.5 to 5 µM, the “Enzymatic Emax” value [1] is reported as “B (3≥B>2)” and the EC50 [2, 6] is reported as 0.5 to 5 µM. It also gave a maximal fold induction [2, 6] greater than 1.5.

For `Cn1ncc(Cl)c1CC1c2cc(F)ccc2C(=O)N1Cc1ccc2[nH]nnc2c1` (centres unmarked) [Compound 344, 2-((1H-benzo[d][1,2,3]triazol-5-yl)methyl)-3-((4-chloro-1-methyl-1H-pyrazol-5-yl)methyl)-5-fluoroisoindolin-1-one], the EC50 [1, 5] was 0.5 to 5 µM, the “Enzymatic Emax” value [1] was “A (A>3)” and the EC50 [2, 6] was less than 0.5 µM. It also gave a maximal fold induction [2, 6] greater than 1.5.

In the case of `CC1c2cc(NC3CCOCC3)ccc2C(=O)N1Cc1ccc2[nH]c(=O)oc2c1` (centres unmarked) [Compound 95, 6-((3-methyl-1-oxo-5-((tetrahydro-2H-pyran-4-yl)amino)isoindolin-2-yl)methyl)benzo[d]oxazol-2(3H)-one], the EC50 [1, 3] is reported as 0.5 to 5 µM, the “Enzymatic Emax” value [1] is reported as “B (3≥B>2)” and the EC50 [2, 4] is reported as 5 to 50 µM. It also gave a maximal fold induction [2, 4] greater than 1.5.

For `Cc1scnc1CC1c2ccccc2C(=O)N1Cc1ccc2[nH]c(=O)oc2c1` (centres unmarked) [Compound 217, 6-((1-((5-methylthiazol-4-yl)methyl)-3-oxoisoindolin-2-yl)methyl)benzo[d]oxazol-2(3H)-one], the EC50 [1, 3] was 0.5 to 5 µM, the “Enzymatic Emax” value [1] was “A (A>3)” and the EC50 [2, 4] was 0.5 to 5 µM. The maximal fold induction [2, 4] was greater than 1.5.

In the case of `Cn1ncc(C#N)c1CC1c2ccccc2C(=O)N1Cc1ccc2[nH]nnc2c1` (centres unmarked) [Compound 317, 5-((2-((1H-benzo[d][1,2,3]triazol-5-yl)methyl)-3-oxoisoindolin-1-yl)methyl)-1-methyl-1H-pyrazole-4-carbonitrile], the EC50 [1, 3] is reported as less than 0.5 µM, the “Enzymatic Emax” value [1] is reported as “C (2≥C)” and the EC50 [2, 4] is reported as less than 0.5 µM. The maximal fold induction [2, 4] was 1.2 to 1.5.

With `CC1c2ccccc2C(=O)N1Cc1ccc2[nH]c(=O)oc2c1` (centres unmarked) [Compound 54, 6-((1-methyl-3-oxoisoindolin-2-yl)methyl)benzo[d]oxazol-2(3H)-one] the EC50 [1, 3] was no less than 5 µM, the “Enzymatic Emax” value [1] was “A (A>3)” and the EC50 [2, 4] was 0.5 to 5 µM. It also gave a maximal fold induction [2, 4] greater than 1.5.

In the case of `O=C1c2ccc(CN3CCOCC3)cc2C(Cc2ccccc2)N1Cc1ccc2[nH]c(=O)oc2c1` (centres unmarked) [Compound 123, 6-((3-benzyl-5-(morpholinomethyl)-1-oxoisoindolin-2-yl)methyl)benzo[d]oxazol-2(3H)-one], the EC50 [1, 3] is reported as 0.5 to 5 µM, the “Enzymatic Emax” value [1] is reported as “A (A>3)” and the EC50 [2, 4] is reported as 0.5 to 5 µM. The maximal fold induction [2, 4] was greater than 1.5.

In the case of `O=C1c2cccnc2CN1Cc1ccc(O)cc1` [Compound 39, 6-(4-hydroxybenzyl)-6,7-dihydro-5H-pyrrolo[3,4-b]pyridin-5-one], the EC50 [1, 3] is reported as no less than 5 µM, the “Enzymatic Emax” value [1] is reported as “B (3≥B>2)” and the EC50 [2, 4] is reported as 5 to 50 µM. It also gave a maximal fold induction [2, 4] of 1.2 to 1.5.

For `O=C1c2ccccc2C(Cc2cccnc2)N1Cc1ccc2[nH]c(=O)oc2c1` (centres unmarked) [Compound 137, 6-((1-oxo-3-(pyridin-3-ylmethyl)isoindolin-2-yl)methyl)benzo[d]oxazol-2(3H)-one], the EC50 [1, 3] was 0.5 to 5 µM, the “Enzymatic Emax” value [1] was “B (3≥B>2)” and the EC50 [2, 4] was less than 0.5 µM. It also gave a maximal fold induction [2, 4] greater than 1.5.

For `Cc1ccnc(C(C)(C)O)c1CC1c2ccccc2C(=O)N1Cc1ccc2[nH]nnc2c1` (centres unmarked) [Compound 375, 2-((1H-benzo[d][1,2,3]triazol-5-yl)methyl)-3-((2-(2-hydroxypropan-2-yl)-4-methylpyridin-3-yl)methyl)isoindolin-1-one], the EC50 [1, 5] was less than 0.5 µM, the “Enzymatic Emax” value [1] was “A (A>3)” and the EC50 [2, 6] was less than 0.5 µM. It also gave a maximal fold induction [2, 6] greater than 1.5.
